Data as given in patent US20160081312A1, “MODEL OF ALZHEIMER'S DISEASE” (priority 2013, published 2016).

B1: IL1-Ra: Rat recombinant IL-1 receptor antagonist, R&D systems (protein, UniProt P25086 27-178, looked up)
Interleukin-1 receptor …: HPAGKRPCKMQAFRIWDTNQKTFYLRNNQLIAGYLQGPNTKLEEKIDMVPIDFRNVFLGIHGGKLCLSCVKSGDDTKLQLEEVNITDLNKNKEEDKRFTFIRSETGPTTSFESLACPGWFLCTTLEADHPVSLTNTPKEPCTVTKFYFQEDQ

Columns and labels:
APP [1] = experiment: APP level in cultured rat neurons and astrocytes; type: cell-based, wistar rat; settings: memantine 5 μM, donepezil 10 μM, docosahexaenoic acid 10 μM; for Fold reduction in APP: metal mixture-induced, rat astrocytes and neurons, α-tocopherol 10 μM; for effect on levels of APP in the cellular model of AD: Vitamin E 10 μM
Experimental: (§1) The pregnant wistar rats were sacrificed by cervical dislocation and the embryos were removed on the 16th day of gestation. The embryonic brain tissues were mechanically dissociated into individual cells in dissection media containing Glucose (1M), sucrose (1 M), HEPES Buffer (1M) and Hank's salt (1×). The resulting cells were centrifuged (1,500 rpm, 5 min), resuspended in NEUROBASAL medium containing B-27 supplement (Invitrogen, Carlsbad, Calif.), L-glutamine (0.5 mM), penicillin (100 U/ml) and streptomycin (100 μg/ml) and plated into 60 mm dishes. The culture media was changed every 2 days.
(§2) The astrocytes from rat brain were isolated and cultured. Briefly, prefrontal cortices of 1-day-old wistar rats were dissected out and digested with trypsin for 10 min at 37° C. A single cell suspension was obtained by triturating, and the cells were seeded onto poly-L-lysine (100 μg/ml)-coated plates. The cultures were maintained in DMEM/F12 with 10% heat-inactivated fetal bovine serum, 100 U/ml penicillin, and […] streptomycin. The confluent cells were rinsed twice with serum-free media and then detached with 0.25% trypsin with ethylenediaminetetraacetic acid and sub-cultured.
(§3) The astrocytes and neurons were grown to 80% confluence, pre-incubated in reduced serum (0.5% fetal bovine serum [FBS]) medium for 2 h, and then treated with a mixture of As, Cd, and Pb (Group 1 and 2, Table 2 for neurons, and Table 3 for astrocytes) in the form of NaAsO2, CdCl2 and Pb(C2H3O2)2, respectively in Milli Q water for 16 h, and incubated in a humidified tissue culture incubator at 37° C. with 5% CO2-95% air. The NaAsO2, and CdCl2 readily dissolved in water, while Pb(C2H3O2)2 was dissolved by adding 0.043% acetic acid in water. To identify the synergistic nature, the astrocytes and neurons were treated with metal mixture as well as individual metals (Group 1-5 of Table 2 for neurons, and Table 3 for astrocytes).
(§4) The astrocytes and neurons were treated, washed with PBS and suspended in 100 μl of CelLytic™ MT Cell Lysis Reagent protease inhibitor cocktail (a mixture of 4-(2-aminoethyl)benzenesulfonyl fluoride, pepstatinA, E-64, bestatin, leupeptin, and aprotinin)] and kept on ice for 20 min. The cells were homogenized using a Teflon homogenizer and centrifuged at 15,000 rpm for 30 min at 4° C., and the supernatant was collected. SDS-PAGE and western blotting was done with APP (1:1000), Aβ-40 (1:1000), Aβ-42 (1:1000), IL-1α(1:1000), IL-1β (1:1000) and IL-1R1. […] The samples were detected by chemiluminescence with super signal west femto max substrate. Relative expression of each protein was determined by densitometric quantification of blots using VersaDoc Gel Imaging System (BioRad, Hercules, CF). […]

Aβ = Aβ level in cultured rat neurons and astrocytes; type: cell-based, wistar rat; settings: memantine 5 μM, donepezil 10 μM, docosahexaenoic acid 10 μM; for Fold reduction in Aβ: metal mixture-induced, rat astrocytes and neurons, α-tocopherol 10 μM; for effect on levels of Aβ in the cellular model of AD: Vitamin E 10 μM
Experimental: as §1, §2, §3, §4

Aβ-40 = experiment: Aβ1-40 level in rat cortex and hippocampus, ELISA; type: in vivo, wistar rat
Experimental: (§5) All animal-handling procedures were carried out in accordance with the current regulations of the Indian Institute of Toxicology Research Animal Ethics Committee, and with its prior approval for using the animals. The pregnant female wistar rats were housed in a 12-h […] cycle environment with ad libitum diet and water. The rats were divided into six groups (n=30 per group), gavage-treated with the metal mixture (Table 1). The metal mixture treatment was at two concentrations (1× and 10×; Groups 1-3, Table 1) for dose-dependent study. To identify the synergistic nature, the animals were treated in mixture as well as individually with the metals (Group 1-6 of Table 1). The heavy metals were As, Cd and Pb, fed in the form of NaAsO2, CdCl2 and Pb(C2H3O2)2, respectively, in Milli Q water. The NaAsO2, and CdCl2 readily dissolved in water, while Pb(C2H3O2)2 was dissolved by adding 0.043% acetic acid in water. The dams (pregnant rats and lactating mother rats) were daily treated with the metals in water from gestation day 5 (G-05) until the pups weaned (postnatal day-21, P-21). From P-22, the postnatal rats were directly treated with the metals until P-90. The tissues were collected at P-24, P-60 or P-90. The male rats were selected for the study, and rats from separate litters served as independent subjects.

APP [2] = experiment: APP level in rat brain cortex and hippocampus, western blotting; type: in vivo, wistar rat
Experimental: as §5
(§6) Tissues of the cerebral cortex and hippocampus from five to seven postnatal wistar rats were harvested, snap-frozen in liquid nitrogen, and stored at −80° C. until further investigation. SDS-PAGE and western blotting was performed with APP (1:1000), Aβ-40 (1:1000), Aβ-42 (1:1000), APP-CTF-β (1:1000), presenilin (1:1000), IL-1α (1:1000), IL-1β (1:1000) and IL-1R1 (1:1000), RAGE (1:1000) and pGP (1:1000). […] The samples were detected by chemiluminescence with super signal west femto max substrate. Relative expression of each protein was determined by densitometric quantification of blots using VersaDoc Gel Imaging System (BioRad, Hercules, CF). […]

Aβ-42 = Aβ-42 level in rat brain cortex and hippocampus, western blotting; type: in vivo, wistar rat
Experimental: as §5, §6

[3] = memantine 10 mg/kg body weight, donepezil 1.5 mg/kg body weight
[4] = metal mixture-induced, rat brain, two week treatment, memantine 10 mg/kg, donepezil 1.5 mg/kg with 10X-MM in P-90 rats
[5] = hippocampal insertion, once at P-90 in 10X-MM-treated rats, dissected after 10 days

Row | Molecule | Fold reduction in APP (APP [1]) [fold] | Fold reduction in Aβ (Aβ) [fold] | effect on levels of APP in the cellular model of AD (APP [1]) | effect on levels of Aβ in the cellular model of AD (Aβ) | also measured
1 | CC/C=C\C/C=C\C/C=C\C/C=C\C/C=C\C/C=C\CCC(=O)O [Docosahexaenoic acid] | 1.25 ± 0.0265 | 2.3 ± 0.0853 | – | – | –
2 | CC12CC3CC(C)(C1)CC(N)(C3)C2 [Memantine] | 1.3 ± 0.0392 | 1.4 ± 0.052 | suppressed | suppressed | effect on Aβ1-40 in the non-transgenic wistar rat model of AD (Aβ-40; [3]): suppress; fold reduction in Aβ-40 (Aβ-40; [4]): 2.54 ± 0.0099 fold; effect on APP in the non-transgenic wistar rat model of AD (APP [2]; [3]): suppress; Fold reduction in APP (APP [2]; [4]): 1.69 ± 0.0510 fold; effect on Aβ1-42 in the non-transgenic wistar rat model of AD (Aβ-42; [3]): suppress; fold reduction in Aβ-42 (Aβ-42; [4]): 2.42 ± 0.0143 fold
3 | Cc1c(C)c2c(c(C)c1O)CC[C@@](C)(CCC[C@H](C)CCC[C@H](C)CCCC(C)C)O2 [α-tocopherol] | – | – | suppressed | suppressed | –
4 | B1 | – | – | – | – | effect on APP in As, Cd and Pb-mixture treated rat brain (APP [2]; [5]): suppressed; effect on Aβ1-42 in As, Cd and Pb-mixture treated rat brain (Aβ-42; [5]): suppressed
